This note sets out measurements from US12410179B2, “Modulators of TNF alpha activity and uses thereof” (RayThera, Inc., priority 2023, dated 2025).

The target of one assay is TNFα (Homo sapiens, UniProt P01375). Kind of assay: HEK-Blue hTNFα reporter assay. The note with it: HEK-Blue hTNFα reporter cells, SEAP readout; read-out: IC50 Range. Also on record: purchased R&D biosystem (R&D Systems) 210-TA-020/CF. The class given is cell-based. The text has this: Stimulation of HEK293 cells by TNFα leads to activation of the NF-κB pathway. The potency of compounds was examined in HEK-Blue™ hTNFα reporter cells (Invivogen, Cat #hkb-tnfdmyd). HEK-Blue™ TNFα cells were generated by stable transfection of HEK293 cell line with a SEAP reporter gene under the control of the […] minimal promoter fused to NF-κB binding sites. Stimulation of HEK-Blue™ TNFα cells with TNFα triggers the activation of the NF-κB-inducible promoter and the production of SEAP. Levels of SEAP in the supernatant can be easily determined using QUANTI-Blue™ Solution (Invivogen, cat #rep-qbs) by reading the OD at 620-655 nm.
Sequence of TNFα (P01375 77-233 limits assumed): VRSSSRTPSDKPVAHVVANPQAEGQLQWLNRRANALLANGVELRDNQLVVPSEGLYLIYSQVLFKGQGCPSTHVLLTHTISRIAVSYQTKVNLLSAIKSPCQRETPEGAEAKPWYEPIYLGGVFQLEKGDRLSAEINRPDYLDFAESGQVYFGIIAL
HEK-Blue™ TNFα cells were cultured in DMEM supplemented with 10% FBS, 100p/mL penicillin, 100 μg/mL streptomycin, 100 μg/mL normocin, 1 μg/mL puromycin, and 100 μg/mL zeocin. The culture was maintained in culture incubator with 5% CO2 at 37° C. When used for assay, the cells were gently rinsed twice with pre-warmed phosphate buffered saline (PBS) and detached in presence of PBS by tapping the flask or by using a cell scraper. The cells were spun to remove PBS and resuspended in fresh, pre-warmed test medium (DMEM supplemented with 10% FBS, 100p/mL penicillin, and 100 μg/mL streptomycin). A serial dilution of work solution of tested compound was made in DMSO with 1000× of final concentration, and 40 nL of compound DMSO solution was transferred into 384-well plates (Corning 3764) by Echo, and incubated with 10 μL of recombinant hTNFα (R&D biosystem, Cat #210-TA-020/CF) for 1 h at 37° C. The compound/hTNFα mixture well received 30 μL HEK-Blue™ TNFα cell suspension at 10000 cells/well, and then incubated at 37° C. with 5% CO2 for 24 h. The final concentration of hTNFα is […]. After incubation, 5 μL of induced cell supernatant was transferred to a new 384-well plate well (Coring 3764) to mix with 45 μL of QUANTI-Blue Solution. After 1 h incubation at 37° C., the plate was read using a spectrophotometer at 620 nm.
The percentage of inhibition was calculated by the following formula: % inhibition=(positive control−Sample)/(positive control−negative control)*100 • Positive control: OD620 reading of cells with hTNFα stimulation. • Negative control: OD620 reading of cells without hTNFα stimulation. • Sample: OD620 reading of cells with compound at specific concentration and hTNFα stimulation
The % inhibition was plotted against compound concentration in logarithmic scale and the IC50 was rendered using 4-parameter nonlinear regression (GraphPad Prism).
As to `CN1C(=O)c2cccc(OC(F)F)c2[C@H]2C[C@@H]1c1nn3ccc(-c4cnc([C@H](O)C(C)(C)O)nc4)cc3c12` [Example 133], the IC50 was less than 25 nM. On the same count and under the same terms, in the case of `CN1C(=O)c2cccc(OC(F)F)c2[C@H]2C[C@@H]1c1nn3ccc(-c4cnc(N5CCOCC5)nc4)cc3c12` [Example 158] it was less than 25 nM; in that of `C[C@]1(O)C[C@](N)(c2ncc(-c3nc4c5c(nn4cc3F)[C@H]3C[C@@H]5c4c(OC(F)F)cccc4C(=O)N3)cn2)C1` [Example 223], less than 25 nM.

As to `CN1C(=O)c2cccc(OC(F)F)c2[C@H]2C[C@@H]1c1nn3ccc(-c4cnc([C@]5(C#N)C[C@@](C)(O)C5)nc4)nc3c12` [Example 5, (1r,3S)-1-(5-((7R,14S)-1-(difluoromethoxy)-6-methyl-5-oxo-5,6,7,14-tetrahydro-7,14-methanobenzo[c]pyrimido[1′,2′:1,5]pyrazolo[4,3-f]azocin-12-yl)pyrimidin-2-yl)-3-hydroxy-3-methylcyclobutane-1-carbonitrile], the IC50 was less than 25 nM. Same read-out and setting: the value for `CN1C(=O)c2cccc(OC(F)F)c2[C@H]2C[C@@H]1c1nn3ccc([C@H]4CC[C@@H](OC[C@H](O)CO)CC4)cc3c12` [Example 317, (7R,14S)-1-(difluoromethoxy)-12-((1S,4R)-4-((R)-2,3-dihydroxypropoxy)cyclohexyl)-6-methyl-6,7-dihydro-7,14-methanobenzo[c]pyrido[1′,2′:1,5]pyrazolo[4,3-f]azocin-5 (14H)-one] was less than 25 nM; that for `[2H]C([2H])([2H])N1C(=O)c2cccc(OC(F)F)c2[C@H]2C[C@@H]1c1nn3ccc(-c4cnc(C5(N)CC5)nc4)nc3c12` [Example 238] was less than 25 nM. Same read-out and setting: in the case of `CN1CCN(c2ncc(-c3ccn4nc5c(c4c3)[C@@H]3C[C@H]5N(C)C(=O)c4cccc(OC(F)F)c43)cn2)CC1` [Example 155] it was less than 25 nM. Still for that read-out and setting: in the case of `CN1C(=O)c2cccc(OC(F)F)c2[C@H]2C[C@@H]1c1nn3ccc(-c4cnc(P(C)(C)=O)c(F)c4)cc3c12` [Example 21] it was less than 25 nM; in that of `CN1C(=O)c2cccc(OC(F)F)c2[C@H]2C[C@@H]1c1nn3cc(F)c(-c4cnc(C5(N)CCC5)nc4)nc3c12` [Example 23], less than 25 nM; in that of `CN1C(=O)c2cccc(OC(F)F)c2[C@H]2C[C@@H]1c1nn3cc(F)c(-c4cnc([C@]5(N)C[C@@](C)(O)C5)c(F)c4)nc3c12` [Example 50], less than 25 nM. With `CN1C(=O)c2cccc(OC(F)F)c2[C@H]2C[C@@H]1c1nn3cnc(-c4cnc([C@]5(N)C[C@@](C)(C#N)C5)c(F)c4)cc3c12` [Example 59], the IC50 is less than 25 nM. On the same count and under the same terms, the value for `[2H]C([2H])([2H])N1C(=O)c2cccc(OC(F)F)c2[C@H]2C[C@@H]1c1nn3ccc(-c4cnc(C5(N)CC5)nc4)cc3c12` [Example 255] was less than 25 nM.

On to `[2H]C([2H])([2H])N1C(=O)c2cccc(OC(F)F)c2[C@H]2C[C@@H]1c1nn3cc(F)c(-c4cnc(C5(N)CC(F)(F)C5)nc4)nc3c12` [Example 228], for which the IC50 is less than 25 nM. On the same count and under the same terms, in the case of `[2H]C([2H])([2H])N1C(=O)c2cccc(OC(F)F)c2[C@H]2C[C@@H]1c1nn3ccc(-c4cnc([C@H](N)C5CC5)nc4)nc3c12` [Example 277] it was less than 25 nM. On the same count and under the same terms, the value for `CN1C(=O)c2cccc(OC(F)F)c2[C@H]2C[C@@H]1c1nn3ccc(-c4cnc([C@]5(O)CCOC5)nc4)cc3c12` [Example 63] was less than 25 nM; that for `[2H]C([2H])([2H])N1C(=O)c2cccc(OC(F)F)c2[C@H]2C[C@@H]1c1nn3cc(F)c(-c4cnc([C@]5(N)C[C@@H](O)C5)c(F)c4)nc3c12` [Example 225] was less than 25 nM. The same measure, in the same setting: the value for `[2H]C([2H])([2H])N1C(=O)c2cccc(OC(F)F)c2[C@H]2C[C@@H]1c1nn3ccc(-c4cnc([C@]5(N)C[C@@](C)(C#N)C5)cn4)cc3c12` [Example 210] was less than 25 nM; that for `[2H]C([2H])([2H])N1C(=O)c2cccc(OC(F)F)c2[C@H]2C[C@@H]1c1nn3ccc(-c4cnc(C(C)(C)N)nc4)nc3c12` [Example 286] was less than 25 nM. Take `C[C@]1(O)C[C@](O)(c2ncc(-c3ccn4nc5c(c4c3)[C@@H]3C[C@H]5NC(=O)c4cccc(OC(F)F)c43)cn2)C1` [Example 38]: the IC50 is less than 25 nM. The same measure, in the same setting: in the case of `[2H]C([2H])([2H])N1C(=O)c2cccc(OC(F)F)c2[C@H]2C[C@@H]1c1nn3ccc(-c4cnc([C@@H](N)C5CC5)nc4)cc3c12` [Example 258] it was less than 25 nM. Still for that read-out and setting: in the case of `CN1C(=O)c2cccc(OC(F)F)c2[C@H]2C[C@@H]1c1nn3ccc(-c4cnc([C@](C)(O)CC#N)nc4)cc3c12` [Example 75] it was less than 25 nM; in that of `[2H]C([2H])([2H])N1C(=O)c2cccc(OC)c2[C@H]2C[C@@H]1c1nn3ccc(-c4cnc(C5(N)CCC5)nc4)cc3c12` [Example 251], less than 25 nM. Same read-out and setting: in the case of `CN1C(=O)c2cccc(OC(F)F)c2[C@H]2C[C@@H]1c1nn3ccc([C@H]4CC[C@@H](OC[C@@H](O)CO)CC4)cc3c12` [Example 316, (7R,14S)-1-(difluoromethoxy)-12-((1R,4R)-4-((S)-2,3-dihydroxypropoxy)cyclohexyl)-6-methyl-6,7-dihydro-7,14-methanobenzo[c]pyrido[1′,2′:1,5]pyrazolo[4,3-f]azocin-5 (14H)-one] it was less than 25 nM; in that of `Cc1nc(C2(N)CCC2)ncc1-c1ccn2nc3c(c2n1)[C@@H]1C[C@H]3NC(=O)c2cccc(OC(F)F)c21` [Example 275], less than 25 nM; in that of `[2H]C([2H])([2H])N1C(=O)c2cccc(C#N)c2[C@H]2C[C@@H]1c1nn3cc(F)c(-c4cnc(C5(N)CCC5)nc4)cc3c12` [Example 307], 25 to 100 nM. For the molecule `CN1C(=O)c2cccc(OC(F)F)c2[C@H]2C[C@@H]1c1nn3ccc(-c4cnc([C@]5(O)CC[C@@H](O)C5)nc4)cc3c12` [Example 101], the IC50 was less than 25 nM. The same measure, in the same setting: the value for `[2H]C([2H])([2H])N1C(=O)c2cccc(OC(F)F)c2[C@H]2C[C@@H]1c1nn3cc(F)c(-c4cnc([C@]5(N)C[C@@](C)(O)C5)cn4)cc3c12` [Example 214] was less than 25 nM; that for `C[C@@](O)(CC#N)c1ncc(-c2ccn3nc4c(c3c2)[C@@H]2C[C@H]4NC(=O)c3cccc(OC(F)F)c32)cn1` [Example 163] was less than 25 nM. Still for that read-out and setting: the value for `[2H]C([2H])([2H])N1C(=O)c2cccc(OC(F)F)c2[C@H]2C[C@@H]1c1nn3cnc(-c4cnc([C@]5(O)C[C@](C)(C#N)C5)nc4)cc3c12` [Example 273] was less than 25 nM. On the same count and under the same terms, in the case of `[2H]C([2H])([2H])N1C(=O)c2cccc(OC(F)F)c2[C@H]2C[C@@H]1c1nn3ccc(-c4cnc([C@]5(C#N)C[C@](C)(N)C5)nc4)cc3c12` [Example 280] it was less than 25 nM; in that of `[2H]C([2H])([2H])N1C(=O)c2ccc(F)c(OC(F)F)c2[C@H]2C[C@@H]1c1nn3ccc(-c4cnc([C@]5(N)C[C@@](C)(O)C5)nc4)nc3c12` [Example 288], less than 25 nM; in that of `[2H]C([2H])([2H])N1C(=O)c2cccc(OC(F)F)c2[C@H]2C[C@@H]1c1nn3ccc(-c4cnc(C5(N)CCC5)nc4)cc3c12` [Example 248], less than 25 nM.

Staying with this assay, now noted: HEK-Blue hTNFα reporter cells; read-out: TNFα reporter, Emax.
As for `CN1C(=O)c2cccc(OC(F)F)c2[C@H]2C[C@@H]1c1nn3cnc(-c4cnc([C@]5(N)C[C@@](C)(C#N)C5)c(F)c4)cc3c12` [Example 59], the maximal effect (Emax) is 98%.

Still in this assay, the particulars now being: HEK-Blue hTNFα reporter cells; read-out: TNFα reporter, IC50.
On to `CN1C(=O)c2cccc(OC(F)F)c2[C@H]2C[C@@H]1c1nn3cnc(-c4cnc([C@]5(N)C[C@@](C)(C#N)C5)c(F)c4)cc3c12` [Example 59], for which the 50% inhibitory concentration (IC50) was 4.1 nM.
